Test [1] has as its system prostate cancer cell lines. Nature of the test: NCI 60 screen, sub-panel mean. Format: cell-based, human. Particulars: NCI-60, prostate cancer sub-panel. Here is the method: (§1) Anticancer profiling over a panel of 60 cancer cell lines was carried out at the National Cancer Institute (NCI), Bethesda, Maryland, USA, https://dtp.cancer.gov/discovery_development/nci-60/methodology.htm (Last visit 22 September 2021), using the standard procedure (detailed procedure is located in the Supplementary Information page 50 s).
(§2) NCI standard procedure for 60 cell lines assay
(§3) The human tumor cell lines of the cancer screening panel are grown in RPMI 1640 mediu m containing 5% fetal bovine serum and 2 mM L-glutamine. For a typical screening experiment, cells are inoculated into 96 well microtiter plates in 100 μL at plating densities ranging from 5,000 to 40,000 cells/well depending on the doubling time of individual cell lines. After cell inoculation, the microtiter plates are incubated at 37° C, 5 % CO2, 95 % air and 100 % relative humidity for 24 h prior to addition of experimental drugs.
(§4) After 24 h, two plates of each cell line are fixed in situ with TCA, to represent a measurement of the cell population for each cell line at the time of drug addition (Tz). Experimental drugs are solubilized in dimethyl sulfoxide at 400-fold the desired final maximum test concentration (10 µM) and stored frozen prior to use. At the time of drug addition, an aliquot of frozen concentrate is thawed and diluted to twice the desired final maximum test concentration with co mp lete medium containing 50 μg/ml gentamicin. Additional four, 10-fold or ½ log serial dilutions are made to provide a total of five drug concentrations plus control. Aliquots of 100 μl of these different drug dilutions are added to the appropriate microtiter wells already containing 100 μl of medium, resulting in the required final drug concentrations.
(§5) Following drug addition, the plates are incubated for an additional 48 h at 37°C, 5 % CO2, 95 % air, and 100 % relative humidity. For adherent cells, the assay is terminated by the addition of cold TCA. Cells are fixed in situ by the gentle addition of 50 μl of cold 50 % (w/v) TCA (final concentration, 10 % TCA) and incubated for 60 minutes at 4°C. The supernatant is discarded, and the plates are washed five times with tap water and air dried. Sulforhodamine B (SRB) solution (100 μl) at 0.4 % (w/v) in 1 % acetic acid is added to each well, and plates are incubated for 10 minutes at room temperature. After staining, unbound dye is removed by washing five times with 1 % acetic acid and the plates are air dried. Bound stain is subsequently solubilized with 10 mM trizma base, and the absorbance is read on an automated plate reader at a wavelength of 515 nm. For suspension cells, the methodology is the same except that the assay is terminated by fixing settled cells at the bottom of the wells by g ently adding 50 μl of 80 % TCA (final concentration, 16 % TCA). Using the seven absorbance measurements [time zero, (Tz), control growth, (C), and test growth in the presence of drug at the five concentration levels (Ti)], the percentage growth is calculated at each of the drug concentrations levels. Percentage growth inhibition is calculated as:
(§6) [(Ti-Tz)/(C-Tz)] x 100 for concentrations for which Ti>/=Tz
(§7) [(Ti-Tz)/Tz] x 100 for concentrations for which Ti<Tz.
(§8) Three dose response parameters are calculated for each experimental agent. Growth inhibition of […]
(§9) resulting in a 50% reduction in the net protein increase (as measured by SRB staining) in control cells during the drug incubation. The drug concentration resulting in total growth inhibition […]
(§10) (TGI) is calculated from Ti = Tz.

The subject of a further test is renal cancer cell lines. The test can be described thus: NCI 60 screen, sub-panel mean. In kind it is cell-based, human. The following applies: NCI-60, renal cancer sub-panel. Here is the method: as §1, §2, §3, §4, §5, §6, §7, §8, §9, §10
Another test relates to breast cancer cell lines. Nature of the test: NCI 60 screen, sub-panel mean. Format: cell-based, human. The following applies: NCI-60, breast cancer sub-panel. Here is the method: as §1, §2, §3, §4, §5, §6, §7, §8, §9, §10
Another test has as its system leukemia cell lines. The test can be described thus: NCI 60 screen, sub-panel mean. Particulars: NCI-60, leukemia sub-panel. In kind it is cell-based, human. Here is the method: as §1, §2, §3, §4, §5, §6, §7, §8, §9, §10
Test [2] has as its system non-small cell lung cancer cell lines. Nature of the test: NCI 60 screen, sub-panel mean. Format: cell-based, human. Particulars: NCI-60, non-small cell lung cancer sub-panel. Here is the method:
as §1, §2, §3, §4, §5, §6, §7, §8, §9, §10

The test system of another test is colon cancer cell lines. Nature of the test: NCI 60 screen, sub-panel mean. In kind it is cell-based, human. Particulars: NCI-60, colon cancer sub-panel. Here is the method:
as §1, §2, §3, §4, §5, §6, §7, §8, §9, §10

The test system of test [3] is ovarian cancer cell lines. Nature of the test: NCI 60 screen, sub-panel mean. Format: cell-based, human. Particulars: NCI-60, ovarian cancer sub-panel. Here is the method: as §1, §2, §3, §4, §5, §6, §7, §8, §9, §10
Test [4] relates to melanoma cancer cell lines. The test can be described thus: NCI 60 screen, sub-panel mean. In kind it is cell-based, human. Particulars: NCI-60, melanoma sub-panel. Here is the method: as §1, §2, §3, §4, §5, §6, §7, §8, §9, §10
In a further test the test system is CNS cancer cell lines. The test can be described thus: NCI 60 screen, sub-panel mean. In kind it is cell-based, human. Particulars: NCI-60, CNS sub-panel. Here is the method:
as §1, §2, §3, §4, §5, §6, §7, §8, §9, §10

Test [5] deals with T-47D cells. The test can be described thus: Cell cycle analysis by flow cytometry (propidium iodide). Format: cell-based. The following applies: 5 µM. Here is the method:
The distribution of cell cycle was determined by flow cytometric assay after using propidium iodide to stain the DNA content of the treated cells. […] Meanwhile, the cells of the G2-phase decreased to 6% compared to 8% in the untreated cells.
In the beginning, the IC50 of compound 12e over T-47D (American Type Culture Collection, US) was determined using MTT assay, and the same procedure was applied for A375 and SK-MEL-5. […] Cells were collected by trypsinization, washed two times with ice-cold PBS, and re-suspended in 60% cold ethanol and kept at 4 °C for 60 min. PBS was used to wash the fixed cells and was re-suspended in 1.0 mL of PBS containing 10µg/mL propidium iodide and 50 µg/mL RNAase A. Cells were incubated in the dark at 37 °C for 20min; then, DNA contents were analyzed using flow cytometric analysis using an FL2 (λex/em 535/617 nm) signal detector. For each sample, 12,000 events were acquired. The cell cycle distribution was obtained by using ACEA NovoExpress^TM software.
(In flow cytometry, cells or beads pass a laser one at a time.)

Another test deals with NCI 60 cancer cell lines. Nature of the test: NCI 60 cell line screen, mean over panel. Format: cell-based, human. Here is the method: as §1, §2
The human tumor cell lines of the cancer screening panel are grown in RPMI 1640 mediu m containing 5% fetal bovine serum and 2 mM L-glutamine. […]
Following drug addition, the plates are incubated for an additional 48 h at 37°C, 5 % CO2, 95 % air, and 100 % relative humidity. […] Bound stain is subsequently solubilized with 10 mM trizma base, and the absorbance is read on an automated plate reader at a wavelength of 515 nm. […] Using the seven absorbance measurements [time zero, (Tz), control growth, (C), and test growth in the presence of drug at the five concentration levels (Ti)], the percentage growth is calculated at each of the drug concentrations levels. Percentage growth inhibition is calculated as: […]
Three dose response parameters are calculated for each experimental agent. […]
resulting in a 50% reduction in the net protein increase (as measured by SRB staining) in control cells during the drug incubation. […]
as §10

For test [6], the system named is T-47D cells. Nature of the test: MTT assay IC50 over T-47D. In kind it is cell-based. The following applies: Homo sapiens, T47D. Here is the method: In the beginning, the IC50 of compound 12e over T-47D (American Type Culture Collection, US) was determined using MTT assay, and the same procedure was applied for A375 and SK-MEL-5. T-47D cells (10^5 cells) were treated with 12e (5 µM) and incubated for 48h. Cells were collected by trypsinization, washed two times with ice-cold PBS, and re-suspended in 60% cold ethanol and kept at 4 °C for 60 min. PBS was used to wash the fixed cells and was re-suspended in 1.0 mL of PBS containing 10µg/mL propidium iodide and 50 µg/mL RNAase A. Cells were incubated in the dark at 37 °C for 20min; then, DNA contents were analyzed using flow cytometric analysis using an FL2 (λex/em 535/617 nm) signal detector. For each sample, 12,000 events were acquired. The cell cycle distribution was obtained by using ACEA NovoExpress^TM software.

What is called pIC50 is the IC50 on a negative log10 scale, so that one unit is a factor of ten.

SMILES strings stand for the structures. pIC50: −log10 of the molar value.

In the case of `O=S(=O)(NCCCNc1nccc(-n2cnc3ccccc32)n1)c1ccc(C(F)(F)F)cc1` [12l, N-(3-((4-(1H-benzo [d]imidazol-1-yl)pyrimidin-2-yl)amino)propyl)-4-(trifluoromethyl) benzenesulfonamide], the mean percent inhibition entry was “around 20%” in [1]; “around 30%” in the test with renal cancer cell lines; “around 40%” in the test with breast cancer cell lines; 46% with leukemia cell lines; 30% in [2]; 30% in the test with colon cancer cell lines. The mean percent inhibition entry in [3] is recorded as “around 25%”.
Regarding `O=S(=O)(NCCNc1nccc(-n2cnc3ccccc32)n1)c1ccc(C(F)(F)F)cc1` [12e, N-(2-((4-(1H-benzo [d]imidazol-1-yl)pyrimidin-2-yl)amino)ethyl)-4-(trifluoromethyl)benzenesulfonamide], the mean percent inhibition is listed as 40% in test [1]; 45% with renal cancer cell lines; “more than 60%” with breast cancer cell lines; 60% in the test with leukemia cell lines; 50% in test [4]; 50% in test [2]. Further, the results for the mean percent inhibition (in the test on colon cancer cell lines; in test [3]; in the test with CNS cancer cell lines) were 40%, 40% and 50%, respectively. For the same compound, the “cells in S-phase, treated cells” value in the test with T-47D cells [5] (control 14%) came to 18%. Moreover, the “cells in G1 phase, treated cells” value with T-47D cells [5] (control 29%) amounted to 31%. Moreover, in the test on T-47D cells [5] (untreated 8%), the “cells in G2-phase, treated cells” value is 6%. In the test on NCI 60 cancer cell lines, the “mean percent inhibition over 60-cell line panel” value is listed as “around 50%”. In the test on T-47D cells [6], this compound showed a negative-log IC50 (pIC50) of 5.27.
For `O=S(=O)(NCCCNc1nccc(-n2cnc3ccccc32)n1)c1ccc(F)cc1` [12i, N-(3-((4-(1H-benzo [d]imidazol-1-yl)pyrimidin-2-yl)amino)propyl)-4-fluorobenzenesulfonamide], the mean percent inhibition result in [1] was “around 20%”; in the test on breast cancer cell lines it was “around 40%”; in the test with leukemia cell lines, 50%; in test [3], “around 25%”.
As to `Cc1ccc(S(=O)(=O)NCCNc2nccc(-n3cnc4ccccc43)n2)cc1` [12g, N-(2-((4-(1H-benzo [d]imidazol-1-yl)pyrimidin-2-yl)amino)ethyl)-4-methyl benzenesulfonamide], the mean percent inhibition entry in test [1] is reported as “around 20%”; in the test on renal cancer cell lines, “around 30%”; in the test on breast cancer cell lines, “around 40%”; in test [2] it was 30%; in test [3], “around 25%”.
Turning to `O=S(=O)(NCCCNc1nccc(-n2cnc3ccccc32)n1)c1cccc2ccccc12` [12n, N-(3-((4-(1H-benzo [d]imidazol-1-yl)pyrimidin-2-yl)amino)propyl)naphthalene-1-sulfonamide], the mean percent inhibition entry in [1] is on record as “around 20%”.

The values above are taken from paper PMC8508980, “Design, Synthesis and Anticancer Profile of New 4-(1H-benzo[d]imidazol-1-yl)pyrimidin-2-amine-Linked Sulfonamide Derivatives with V600EBRAF Inhibitory Effect” (International Journal of Molecular Sciences, 2021).
